Entries after “also recorded” stand apart in the source; their conditions may differ. Where two headings read alike, the source gives them in different places.
How the values were obtained:
[1] = biological target: T1, human α4β2 nAChR (Homo sapiens, UniProt P17787+P43681); assay: Competition binding with [3H]epibatidine on HEK-293 cells expressing human α4β2 nAChR; set-up: expressed in transfected cells; host or cells: HEK-293
[2] = biological target: T2, chick chimeric α7-5HT3 nAChR (UniProt P22770+P23979, M226I/T225I); assay: Competition binding with [125I]α-BTX on HEK-293 cells expressing chimeric α7-5HT3 nAChR
T2 construct: expressed in transfected cells; host or cells: HEK-293

[3] = system: Torpedo muscle-type α1_2β1γδ nAChR; assay: Voltage-clamp recording of ACh-evoked currents in Xenopus oocytes microtransplanted with Torpedo nAChR; type: cell-based, Torpedo marmorata
Description: The fact that the amplitude of the ACh-evoked current was usually ≥1 µA (n = 6) was indicative of a good incorporation of the Torpedo muscle-type receptor into the oocyte membrane.
Torpedo marmorata fish were anaesthetized with 0.03% tricaine (Sigma-Aldrich, Saint Quentin Fallavier, France) in seawater, before surgical removal of electric organs. From sliced Torpedo electric organs, purified membranes enriched in the α1_2β1γδ nAChR were prepared at 4 °C in 5 mM glycine, using procedures described previously. Aliquots of the purified membranes were stored at –80 °C until use. Microtransplantation of Torpedo nAChR [39] consisted in a single microinjection of a membrane suspension (50 nL at 3.5 mg·mL^−1 protein) into the oocyte cytoplasm using a Nanoliter 2000 Micro4 Controller mounted on a microscope (World Precision Instruments, Inc., Hertfordshire, UK), as previously described.
Currents evoked by ACh were recorded with a two-microelectrode voltage-clamp amplifier (OC-725B, Warner Instrument Corp., Hamden, CT, USA) at −60 mV holding potential. Micro-electrodes had 0.5–1.5 MΩ tip resistances. A pCLAMP-9/Digidata-1322A system (Molecular Devices, Union City, CA, USA) was used for data recording. […]

[4] = system: isolated mouse extensor digitorum longus (EDL) neuromuscular preparations, endowed with the α1_2βδε nAChR; assay: Nerve-evoked isometric twitch tension on isolated mouse EDL nerve-muscle preparations
Description: The onset of the contraction block was rapid at high 20-meSPX-G concentration, with a complete block of the twitch response within 60 min at concentrations above 10 nM.
Figure 2 (A) Nerve-evoked isometric twitch responses on isolated mouse extensor digitorum longus (EDL) before and after the action of 10 nM 20-meSPX-G; and (B) concentration-response curve for the action of 20-meSPX-G on nerve-evoked isometric twitch response. Data points represent the normalized twitch response, relative to the respective controls. Each point is the mean ± SEM of 4 nerve muscle preparations at 60 min toxin exposure.
Isometric twitch tension measurements were performed on isolated mouse EDL nerve-muscle preparations after rapid removal from euthanized animals. The isolated EDL nerve-muscle preparation was mounted in a silicone-lined bath perfused with a Krebs-Ringer solution of the following composition (in mM): NaCl 140, KCl 5, CaCl2 2, MgCl2 1, glucose 11, and HEPES 5 (pH 7.4), continuously perfused with pure O2 throughout the experiment. For muscle tension measurements, one of the muscle tendons was securely anchored onto the silicone-coated bath. The other tendon was attached to an isometric force displacement transducer (FT03, Grass Instruments, West Warwick, RI, USA) via an adjustable stainless-steel hook. Muscle twitches were induced either by motor nerve stimulation, or by direct electrical muscle stimulation with supramaximal 0.15 ms duration current pulses delivered by a stimulator (S-44 Grass Instruments), through an electrode assembly placed along the muscle length. The resting tension was monitored and kept constant for each tested preparation through a mobile micrometer stage. Signals from the force transducer were collected, and digitized with a Digidata-1322A A/D interface board (Axon Instruments, Union City, CA, USA), as previously reported.

[5] = biological target: T3, human α7 nAChR (Homo sapiens, UniProt P36544); assay: Voltage-clamp recording of ACh-evoked currents in Xenopus oocytes expressing human α7 nAChR; type: cell-based; conditions: ACh 350 μM (EC50), 3 s, −60 mV; read-out: IC50, inhibition of ACh-evoked current
T3 construct: expressed in transfected cells; host or cells: Xenopus laevis oocytes
Description: Functional analysis of the action of 20-meSPX-G was also performed using voltage-clamp recordings in Xenopus oocytes previously transfected with human α7 or α4β2-encoding cDNAs.
Oocytes were obtained under anesthesia (ethyl-3-amino benzoate methanesulfonate salt solution (1 g·L^−1, Sigma-Aldrich, Saint Quentin Fallavier, France) from mature female Xenopus laevis frogs. Oocytes were recovered and placed in a medium containing no added calcium and containing (in mM): NaCl, 88; KCl, 2.5; MgCl2, 1; and HEPES, 5 (pH 7.6). After extensive washing with this solution, oocytes were transferred to a Barth’s solution containing (in mM): NaCl, 88; KCl, 1; MgSO4, 0.33; CaCl2, 0.41; MgSO4, 0.82; Ca(NO3)2, 0.33; NaHCO3, 2.4; and HEPES, 10 (pH = 7.2) supplemented with kanamycine 0.1 mg·mL^−1. Oocytes (stage V–VI) were defolliculated (manually) and microinjected with 50 nL of human α7 mRNA (0.1 μg·μL^−1), or with a 50 nL mixture of plasmids carrying the cDNA of α4 and β2 (0.3 μg·μL^−1, each). For micro-injection a Nanoliter 2000 Micro4 Controller (World Precision Instruments, Inc., Hertfordshire, UK) was used. […]
Currents evoked by ACh were recorded with a two-microelectrode voltage-clamp amplifier (OC-725B, Warner Instrument Corp., Hamden, CT, USA) at −60 mV holding potential. […]

[6] = biological target: T4, human α3β2 nAChR (Homo sapiens, UniProt P17787+P32297); assay: Competition binding with [3H]epibatidine on HEK-293 cells expressing human α3β2 nAChR; conditions: 4 h, mean ± SEM
T4 construct: expressed in transfected cells; host or cells: HEK-293

[7] = biological target: T1, human α4β2 nAChR; assay: Voltage-clamp recording of ACh-evoked currents in Xenopus oocytes expressing human α4β2 nAChR; type: cell-based; conditions: ACh 150 μM (EC50), −60 mV; read-out: IC50, inhibition of ACh-evoked current
From the text: Oocytes were obtained under anesthesia (ethyl-3-amino benzoate methanesulfonate salt solution (1 g·L^−1, Sigma-Aldrich, Saint Quentin Fallavier, France) from mature female Xenopus laevis frogs. Oocytes were recovered and placed in a medium containing no added calcium and containing (in mM): NaCl, 88; KCl, 2.5; MgCl2, 1; and HEPES, 5 (pH 7.6). After extensive washing with this solution, oocytes were transferred to a Barth’s solution containing (in mM): NaCl, 88; KCl, 1; MgSO4, 0.33; CaCl2, 0.41; MgSO4, 0.82; Ca(NO3)2, 0.33; NaHCO3, 2.4; and HEPES, 10 (pH = 7.2) supplemented with kanamycine 0.1 mg·mL^−1. Oocytes (stage V–VI) were defolliculated (manually) and microinjected with 50 nL of human α7 mRNA (0.1 μg·μL^−1), or with a 50 nL mixture of plasmids carrying the cDNA of α4 and β2 (0.3 μg·μL^−1, each). For micro-injection a Nanoliter 2000 Micro4 Controller (World Precision Instruments, Inc., Hertfordshire, UK) was used. Oocytes that were microinjected were incubated at 18 °C in Barth’s solution, and electrophysiological recordings were performed 3−4 days after microinjection.
Currents evoked by ACh were recorded with a two-microelectrode voltage-clamp amplifier (OC-725B, Warner Instrument Corp., Hamden, CT, USA) at −60 mV holding potential. Micro-electrodes had 0.5–1.5 MΩ tip resistances. […]

[8] = system: mouse; conditions: cited from earlier work; for LD50: mouse
[9] = system: mouse neuromuscular system; assay: In vivo compound muscle action potential (CMAP) recording after local i.m. injection in anesthetized mice
From the text: Figure 3 Effects of i.m. local injections of 20-meSPX-G in vivo on the mouse neuromuscular system. (A) Compound muscle action potentials (CMAPs) recorded from the tail muscle in response to caudal motor nerve stimulation (increasing intensities, scheme), before and at various times after injection of the cyclic imine toxin (35 pg/mouse); (B) time-course of the effects of 20-meSPX-G injections (1.75, 35 and 350.5 pg/mouse) on the CMAP maximal amplitude. Arrows indicate the time of injections; and (C) dose-response curve of the effects of 20-meSPX-G injections on the maximal CMAP amplitude. Each value represents the mean ± SEM of data obtained from 4–6 mice, and is expressed relatively to that obtained before injections. The sigmoid curve was obtained by nonlinear regression analysis through data points (R^2 ≥ 0.99). The 20-meSPX-G dose required to block 50% of the maximal CMAP amplitude (dashed lines) was 47 pg/mouse.
In vivo recordings from the neuromuscular system were done in mice anesthetized by isoflurane inhalation, with a minimally-invasive electrophysiological method using Qtrac software (Institute of Neurology, Queen Square, London, UK, 2013), as previously described. In brief, electrical stimulations were delivered at a constant frequency of 1.25 Hz to the caudal motor nerve (at the base of the tail) with surface electrodes, and the compound muscle action potential (CMAP) was recorded using needle-electrodes inserted into the tail muscle. 20-me-SPX-G, diluted in phosphate buffer saline containing <1% methanol, was injected intramuscularly (i.m.), between stimulation and ground electrodes, in a single bolus of 1.25−5 µL with a micro-syringe (10 μL volume). Continuous on-line recordings were started around six minutes before injections to determine the toxin and/or solvent effects, as a function of time, on selected excitability parameters, such as the CMAP amplitude and excitability threshold.

[10] = biological target: Torpedo muscle-type α1_2β1γδ nAChR; assay: Competition binding with [125I]α-BTX on Torpedo membranes; set-up: species or system Torpedo marmorata; conditions: for Ki: [125I]α-BTX, equilibrium 4 h, mean ± SEM
[11] = biological target: Torpedo muscle-type α1_2β1γδ nAChR; conditions: previously reported; cited from earlier work
[12] = system: mouse neuromuscular system; conditions: local injection, mice; cited from earlier work
[13] = acyclic aminoketone spirolides; cited from earlier work
[14] = biological target: Torpedo muscle-type α1_(2)β1γδ nicotinic acetylcholine receptor (Torpedo marmorata (endogenous in electric organ)) (UniProt P02711); assay: radioligand binding
[15] = i.m. injection, anesthetized mice, corresponding to 47 pg/mouse

20-methyl spirolide G [20-meSPX-G]
fold lower affinity in human α4β2 than in human α3β2 nAChR ([1]; [3H]epibatidine competition binding): 90 fold | Ki ([1]; [3H]epibatidine, HEK-293 cells, 4 h, mean ± SEM): 3.6 ± 0.07 nM | Ki ([2]; [125I]α-BTX, HEK-293 cells, mean ± SEM): 0.11 ± 0.08 nM | times more active than MLA ([2]; α7 / chimeric α7-5HT3, from Ki values): about 7.5 times | agonist action ([3]; 3.1 nM toxin applied alone, −60 mV): no agonist action | IC50 ([3]; ACh 25 µM (EC50), −60 mV holding potential, read-out: IC50, inhibition of ACh-evoked current): 0.36 nM | reversal of neuromuscular transmission block by wash-out ([4]; continuous wash-out for 30 min with spirolide-free medium): not completely reversed | IC50 ([4]; isolated mouse EDL, 60 min toxin exposure, read-out: IC50, block of nerve-evoked muscle contractions): 4.8 nM | concentration giving complete block of the twitch response within 60 min ([4]; nerve-evoked isometric twitch, isolated mouse EDL): above 10 nM | effect on contractions elicited by direct electrical muscle stimulation ([4]; when nerve-evoked twitch was blocked (10 nM)): lack of a direct effect; also recorded: no action | IC50 [5]: 0.48 nM | Ki [6]: 0.04 ± 0.001 nM | IC50 [7]: 2.1 nM | lethality ([8]; mice, i.p. administration of 0.063 mg·kg^−1): absence of lethality | LD50 ([8]; by feeding): 630 µg/kg | LD50 ([8]; intraperitoneal (i.p.) injection): 8 µg/kg | LD50 ([8]; orally by gavage): 160 µg/kg | onset of the effect on CMAP amplitude ([9]; 1.75 pg/mouse i.m.): 15.8 ± 1.9 min | block of CMAP amplitude ([9]; 1.75 pg/mouse i.m., mean): 9% | block of CMAP amplitude ([9]; 350.5 pg/mouse i.m.): 91% | onset of the effect on CMAP amplitude ([9]; 350.5 pg/mouse i.m.): 7.7 ± 2.1 min | CMAP maximal amplitude after spontaneous recovery, relative to controls ([9]; 35–87.6 pg/mouse i.m.): 78.5% | time for CMAP maximal amplitude to return to 78.5% of controls ([9]; 35–87.6 pg/mouse i.m.): ≤ 53.3 ± 19.6 min | ED50, dose required to block 50% of the maximal CMAP amplitude ([9]; i.m. injection, anesthetized mice): 47 pg/mouse | ED50 (also called IC50), block of maximal CMAP amplitude [9, 15]: 0.0017 µg/kg | ED50, block of maximal CMAP amplitude [9, 15]: 2.4 pmol/kg | Ki [10]: 0.028 ± 0.005 nM | fold lower affinity than α-toxin from Naja nigricollis ([10]; from Ki values of Table 1): about 2.5 fold

C=C1CCCC2=NC[C@H](C)[C@@H](C)C[C@@]23CCC([C@@H]2C=C(C)C(=O)O2)=C(C)[C@@H]3/C=C(\C)[C@@H](O)C[C@@H]2CC[C@@]3(CC[C@@]4(O[C@@H](CC[C@@]4(C)O)C1)O3)O2 [13-desmethyl spirolide C]
Ki [11]: 0.08 nM | IC50, reduction of CMAP amplitude in vivo [12]: 6 ng/kg

COc1cc2c3cc1Oc1cc(ccc1O)C[C@@H]1c4c(cc(OC)c(O)c4Oc4ccc(cc4)C[C@@H]3N(C)CC2)CC[N+]1(C)C [d-tubocurarine, reference compound]
fold higher concentration needed for a similar degree of neuromuscular blockade (IC50) compared with 20-meSPX-G ([4]; comparison with literature value): 75 fold

C=C1CCCC2=NC[C@H](C)[C@@H](C)C[C@@]23CCC(C(=O)O)=C[C@@H]3[C@@H]2O[C@]3(C[C@H]4CCC[C@@]5(CC[C@@]6(O[C@@H](CC[C@@]6(C)O)C1)O5)O4)C[C@@H](C)[C@@H](O)[C@H]2O3 [pinnatoxin A]
Ki [11]: 2.8 nM

C=C(CCCC(=O)C1(CCC(C)CN)CCC(C2C=C(C)C(=O)O2)=C(C)C1/C=C(\C)C(O)CC)CC1CCC(C)(O)C2(CCC3(CC(C)CO3)O2)O1 (stereo not drawn) [spirolide E]
toxicity [13]: no toxicity

spirolide F
toxicity [13]: no toxicity

α-toxin from Naja nigricollis (from UniProt P01426 1-61) (natural protein)
Ki [14]: 0.011 nM

B1: α-Toxin (snake): α-toxin from Naja nigricollis, a short-chain curaremimetic toxin (61 residues and four disulfides), synthesized (protein)
chain: LECHNQQSSQPPTTKTCPGETNCYKKVWRDHRGTIIERGCGCPTVKPGIKLNCCTTDKCNN
modifications: disulfide (positions not given here)
notes: α-toxin from Naja nigricollis, a short-chain curaremimetic toxin (61 residues and four disulfides), synthesized
Ki [10]: 0.011 ± 0.002 nM

Reference: article PMC5037475, “The Dinoflagellate Toxin 20-Methyl Spirolide-G Potently Blocks Skeletal Muscle and Neuronal Nicotinic Acetylcholine Receptors” (Toxins, 2016)
